Results reported in patent EP1994944A1, “Polymer conjugate compounds for the inhibition of apoptosis” (Laboratorios SALVAT, S.A., priority 2007, dated 2008).
Marks after values point to notes of the source that are not given here.

Tests used:
Cathepsin B [1] = target: T1, Cathepsin B (Homo sapiens, UniProt P07858); experiment: Degradation on incubation with Cathepsin B: Mw loss and drug release profile from PGA-conjugate; assay type: in vitro ADME; details: Cathepsin B (5 U), pH 6 buffer, 37°C; for 50% drug release t: determined by HPLC; for 50% Mw Loss t: determined by Size Exclusion Chromatography (SEC)
Description: Aqueous solutions of I.1 (1 mg/mL) were prepared, and an aliquot (100 µL) was added to a polypropylene tube and made up to 1 mL with water. The pH of the samples was adjusted to 8 with ammonium formate buffer (100 µL, 1 M, pH 8.5), and then CHCl3 (5 mL) was added. Samples were then thoroughly extracted by vortexing (3 x 10 sec). The […] layer was carefully removed and the solvent was evaporated under N2. The dry residue was dissolved in 200 µL of HPLC grade acetonitrile. In parallel the same procedure was carried out for the parent compound II.1 (using 200µL of a 1 mg/mL stock aqueous solution). Addition of 1 mL of acetonitrile to redissolve the product gave a 200 µg/mL stock from which a range of concentrations was prepared (2 to 100 µg/mL). The free amount of drug in the conjugates was determined by HPLC using a Lichrospher® C18 (150 x 3.9 mm) column. Flow rate 1 mL/min using an acetonitrile gradient in aqueous 0.1 % TFA (from 10 to 90% of acetonitrile in 25 min). The retention time was tr = 22.5 min for II.1 (λ = 220 nm) and tr = 22.0 for II.2.
Cathepsin B (5 U) was added last to a solution of 3 mg PGA or PGA-conjugate I in 1 mL of a pH 6 buffer composed by 20 mM sodium acetate, 2 mM EDTA and 5 mM DTT. Incubation was carried out at 37°C. Aliquots (150 µL) were taken at times up to 72 h, immediately frozen in liquid nitrogen, and stored frozen in the dark until assayed by HPLC (analysis of 100 µL aliquots after extraction procedure) and/or GPC (direct analysis of 50 µL aliquots). In control experiments polymers were incubated in buffer alone (without addition of cathepsin B) to assess non-enzymatic hydrolytic cleavage. In addition, free drug (0.75 mg/mL) was also incubated under same conditions and later used as the reference control. HPLC Evaluation of Released Drug (VIIIa, I.1 or I.2) The extraction method described above to determine free drug content of the conjugate samples was also used here. Mass analysis of the released compounds was carried out by MALDI TOF TOF. GPC Evaluation of Polymer Mw loss. The 50 µL aliquots were diluted up to 200 µL with buffer (PBS) and the Mw determined by GPC using PEG standards. Generally degradation profiles for biomedical polymers are obtained under constant sink conditions and the results correlated with mass loss of the polymer. Since PGA polymers are water soluble, the relative peak areas used in the GPC derived molecular weight calculations provided a suitable alternative to indicate the relative amount of the polymer that remained at each timepoint. As the polymer degraded there was a notable loss of I (PGA-conjugate) molecular weight. Therefore, the loss with time of the area under the curve (AUC) for I and PGA (XII) was considered to evaluate the rate of backbone degradation. […]

Caspase activity = experiment: Caspase inhibition assay (time-dependent, Ac-DEVD-afc substrate) in cultured cells; assay type: cell-based; details: Saos-2, 50 µM drug-eq., apoptosis induced by doxycyclin 2 µM, vs non-treated cells
Description: The time-dependent inhibition of caspase induced by the compounds described in this invention was analyzed. Cell lines were grown in the presence or absence of compounds (50 µM) at different times. Caspase activity was assayed using Saos-2 or U937 cultured cell lines and Ac-DEVD-afc (N-acetyl-Asp-Glu-Val-Asp-afc(7-amino-4-trifluoromethyl coumarin)) as substrate (20 µM). For Saos-2 cell line, apoptosis induction was carried out by the addition of doxycyclin 2 µM; in the case of U937, apoptosis was induced by doxorubicin 0.25 µM. Caspase activity was continuously monitored by the liberation of fluorescent afc using a Cytofluor 4000 fluorimeter (excitation 400 nm; emission 508 nm) for 2 hour. The effect of the compounds on the caspase activity was expressed as the percentage of inhibition in the fluorescence signal of treated cells vs the non-treated cells (control). As control is shown the activity of the previously described conjugate with diglycil linker (named as diglycil)

Cathepsin B [2] = target: T1, Cathepsin B; details: reference value from Vicent MJ and Pérez-Payá, J. Med. Chem. 2006, 49, 3763-3765, cited from earlier work

Substance | 50% drug release t (Cathepsin B [1]) [h] | 50% Mw Loss t (Cathepsin B [1]) [h] | % Caspase Inhibition (Caspase activity; Time 24 h) [%] | % Caspase Inhibition (Caspase activity; Time 48 h) [%] | % Caspase Inhibition (Caspase activity; Time 72 h) [%] | 50% drug release t (h) (Cathepsin B [2]; determined by HPLC) | 50% Mw Loss t (h) (Cathepsin B [2]; determined by SEC)
Poly-L-glutamic acid [2-(2-Amino-3-phenylpropionylamino)-N-{[({carbamoylmethyl-[2-(2,4-dichlorophenyl)ethyl]carbamoyl}methyl)-(3,3-diphenylpropyl)carbamoyl]-methyl}-N-[2-(2,4-dichlorophenyl)ethyl]-3-methylbutyramide] conjugate [I.1] | 0.7 | 5 | 23 | 65 | 100 | – | –
Poly-L-glutamic acid [2-Amino-4-methylpentanoic acid (1-{{[({carbamoylmethyl-[2-(2,4-dichlorophenyl)ethyl]carbamoyl}methyl)-(3,3-diphenylpropyl)carbamoyl]methyl}-[2-(2,4-dichlorophenyl)ethyl]carbamoyl}-2-methylpropyl)amide] conjugate [I.2] | 20 | 30 | 65 | 100 | 100 | – | –
Poly-L-glutamic acid [2-Amino-pentanoic acid (1-{{[({carbamoyl[2-(2,4-chlorophenyl)ethyl]carbamoyl}methyl)-(3,3-diphenylpropyl)carbamoyl]methyl}-[2-(2,4-dichlorophenyl)ethyl]carbamoyl}-2-methylpropyl)amide] conjugate [diglycil, reference compound] | – | – | 67 | 72 | 100 | 30^c h | 60^c h
